Test results reported in ChEMBL document CHEMBL1201862, “PubChem BioAssay data set” (2004).
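A five-concentration, 48-hour dose response in 96-well plates underlies each endpoint, interpolated linearly between surrounding concentrations. GI50 = concentration required for 50% inhibition of growth.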 Activity calls are given as the source filed them. Cut-off read from the data, not from the text of the source: active = GI50 up to about 1.1 µM and inactive = higher.

Key:
Assay in all cases: NCI tumour cell line growth inhibition, 48 h
A498 = system: A498
HOP-62 = system: HOP-62
DU-145 = system: DU-145
NCI-H522 = system: NCI-H522
SK-MEL-2 = system: SK-MEL-2
786-0 = system: 786-0
K562 = system: K562
OVCAR-3 = system: OVCAR-3
HCT-116 = system: HCT-116
LOX IMVI = system: LOX IMVI
OVCAR-8 = system: OVCAR-8
SW-620 = system: SW-620
COLO 205 = system: COLO 205
EKVX = system: EKVX
HCT-15 = system: HCT-15
OVCAR-5 = system: OVCAR-5
M14 = system: M14
SK-MEL-28 = system: SK-MEL-28
MDA-N = system: MDA-N
MCF7 = system: MCF7
UACC-257 = system: UACC-257
ACHN = system: ACHN
HOP-92 = system: HOP-92
SNB-19 = system: SNB-19
HT-29 = system: HT-29
NCI/ADR-RES = system: NCI/ADR-RES
IGROV-1 = system: IGROV-1
PC-3 = system: PC-3
MDA-MB-231 = system: MDA-MB-231
NCI-H23 = system: NCI-H23
A549 = system: A549
UO-31 = system: UO-31
CCRF-CEM = system: CCRF-CEM
OVCAR-4 = system: OVCAR-4
Malme-3M = system: Malme-3M
SK-OV-3 = system: SK-OV-3
UACC-62 = system: UACC-62
SF-268 = system: SF-268
NCI-H226 = system: NCI-H226
SF-295 = system: SF-295
HCC 2998 = system: HCC 2998
T47D = system: T47D
Hs-578T = system: Hs-578T
TK-10 = system: TK-10
NCI-H460 = system: NCI-H460
SK-MEL-5 = system: SK-MEL-5
RXF 393 = system: RXF 393
U-251 = system: U-251
SN12C = system: SN12C
CAKI-1 = system: CAKI-1
MOLT-4 = system: MOLT-4
BT-549 = system: BT-549
MDA-MB-435 = system: MDA-MB-435
KM12 = system: KM12
SNB-75 = system: SNB-75
RPMI-8226 = system: RPMI-8226
SF-539 = system: SF-539

COC(=O)c1sc(=O)sc1SCc1cccc(CSc2sc(=O)sc2C(=O)OC)c1
GI50 (A498): 36.1 µM (inactive)
GI50 (HOP-62): 16 µM (inactive)
GI50 (DU-145): 92.3 µM (inactive)
GI50 (NCI-H522): 29 µM (inactive)
GI50 (SK-MEL-2): 47.9 µM (inactive)
GI50 (786-0): 17.6 µM (inactive)
GI50 (K562): 43.3 µM (inactive)
GI50 (OVCAR-3): 23.9 µM (inactive)
GI50 (HCT-116): 56.1 µM (inactive)
GI50 (LOX IMVI): > 100 µM (inactive)
GI50 (OVCAR-8): 37.2 µM (inactive)
GI50 (SW-620): > 100 µM (inactive)
GI50 (COLO 205): > 100 µM (inactive)
GI50 (EKVX): 42.8 µM (inactive)
GI50 (HCT-15): > 100 µM
GI50 (OVCAR-5): > 100 µM (inactive)
GI50 (M14): 36.4 µM (inactive)
GI50 (SK-MEL-28): 55.8 µM (inactive)
GI50 (MDA-N): 68.9 µM (inactive)
GI50 (MCF7): 9.33 µM (inactive)
GI50 (UACC-257): 70.5 µM (inactive)
GI50 (ACHN): 30 µM (inactive)
GI50 (HOP-92): 24.2 µM (inactive)
GI50 (SNB-19): 22.3 µM (inactive)
GI50 (HT-29): > 100 µM (inactive)
GI50 (NCI/ADR-RES): 62.4 µM (inactive)
GI50 (IGROV-1): 30.7 µM (inactive)
GI50 (PC-3): 29.2 µM (inactive)
GI50 (MDA-MB-231): 24.9 µM (inactive)
GI50 (NCI-H23): 52.6 µM (inactive)
GI50 (A549): 51.4 µM (inactive)
GI50 (UO-31): 64.6 µM (inactive)
GI50 (CCRF-CEM): 50.5 µM (inactive)
GI50 (OVCAR-4): 15.9 µM (inactive)
GI50 (Malme-3M): 18.7 µM (inactive)
GI50 (SK-OV-3): 22.7 µM (inactive)
GI50 (UACC-62): 33.7 µM (inactive)
GI50 (SF-268): 27.3 µM (inactive)
GI50 (NCI-H226): 61.4 µM (inactive)
GI50 (SF-295): 26.2 µM (inactive)
GI50 (HCC 2998): 53.7 µM (inactive)
GI50 (T47D): 38.9 µM (inactive)
GI50 (Hs-578T): 57.1 µM (inactive)
GI50 (TK-10): 23.2 µM (inactive)
GI50 (NCI-H460): 35.1 µM (inactive)
GI50 (SK-MEL-5): > 100 µM (inactive)
GI50 (RXF 393): 26 µM (inactive)
GI50 (U-251): 17.4 µM (inactive)
GI50 (SN12C): 39.7 µM (inactive)
GI50 (CAKI-1): 28.4 µM (inactive)
GI50 (MOLT-4): 47.6 µM (inactive)
GI50 (BT-549): 36.4 µM (inactive)
GI50 (MDA-MB-435): 60.1 µM (inactive)
GI50 (KM12): > 100 µM (inactive)

O=C(O)c1cc(C(=O)C(=O)c2cc(C(=O)O)c(O)c3ccccc23)c2ccccc2c1O
GI50 (A498): > 100 µM (inactive)
GI50 (HOP-62): > 100 µM (inactive)
GI50 (DU-145): > 100 µM (inactive)
GI50 (NCI-H522): > 100 µM (inactive)
GI50 (SNB-75): > 100 µM (inactive)
GI50 (SK-MEL-2): > 100 µM (inactive)
GI50 (786-0): > 100 µM (inactive)
GI50 (K562): > 100 µM (inactive)
GI50 (OVCAR-3): > 100 µM (inactive)
GI50 (HCT-116): > 100 µM (inactive)
GI50 (LOX IMVI): > 100 µM (inactive)
GI50 (RPMI-8226): > 100 µM (inactive)
GI50 (OVCAR-8): > 100 µM (inactive)
GI50 (SW-620): > 100 µM (inactive)
GI50 (COLO 205): > 100 µM (inactive)
GI50 (EKVX): > 100 µM (inactive)
GI50 (HCT-15): > 100 µM
GI50 (OVCAR-5): > 100 µM (inactive)
GI50 (M14): > 100 µM (inactive)
GI50 (SK-MEL-28): > 100 µM (inactive)
GI50 (MDA-N): > 100 µM (inactive)
GI50 (MCF7): > 100 µM (inactive)
GI50 (UACC-257): > 100 µM (inactive)
GI50 (ACHN): > 100 µM (inactive)
GI50 (HOP-92): > 100 µM (inactive)
GI50 (SNB-19): > 100 µM (inactive)
GI50 (HT-29): > 100 µM (inactive)
GI50 (NCI/ADR-RES): > 100 µM (inactive)
GI50 (IGROV-1): > 100 µM (inactive)
GI50 (PC-3): > 100 µM (inactive)
GI50 (MDA-MB-231): > 100 µM (inactive)
GI50 (NCI-H23): > 100 µM (inactive)
GI50 (A549): > 100 µM (inactive)
GI50 (UO-31): > 100 µM (inactive)
GI50 (OVCAR-4): > 100 µM (inactive)
GI50 (Malme-3M): > 100 µM (inactive)
GI50 (SK-OV-3): > 100 µM (inactive)
GI50 (UACC-62): > 100 µM (inactive)
GI50 (SF-268): > 100 µM (inactive)
GI50 (NCI-H226): > 100 µM (inactive)
GI50 (SF-295): > 100 µM (inactive)
GI50 (HCC 2998): > 100 µM (inactive)
GI50 (T47D): > 100 µM (inactive)
GI50 (Hs-578T): > 100 µM (inactive)
GI50 (TK-10): > 100 µM (inactive)
GI50 (NCI-H460): > 100 µM (inactive)
GI50 (SK-MEL-5): > 100 µM (inactive)
GI50 (SF-539): > 100 µM (inactive)
GI50 (RXF 393): > 100 µM (inactive)
GI50 (U-251): > 100 µM (inactive)
GI50 (SN12C): > 100 µM (inactive)
GI50 (CAKI-1): > 100 µM (inactive)
GI50 (BT-549): > 100 µM (inactive)
GI50 (MDA-MB-435): > 100 µM (inactive)
GI50 (KM12): > 100 µM (inactive)
